Measured values: patent US20230285570A1, “THERAPEUTICALLY USEFUL CURE-PRO MOLECULES FOR E3 LIGASE MEDIATED DEGRADATION OF PROTEINS, AND METHODS OF MAKING AND USING THEM” (CORNELL UNIVERSITY, priority 2020, published 2023)
Entries after “also recorded” stand apart in the source; their conditions may differ.

Tests used:
Format in all cases: cell-based
[1] = molecular target: T1, BRD4 (Homo sapiens, UniProt O60885); assay: CURE-PRO-mediated BRD4 degradation in HeLa cells, Western blot; design: endogenous in cells; host or cells: HeLa; details: 24 h
Outline: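 HeLa cells (2.5×10^6) treated 24 h with DMSO-solubilized compounds, degrader pairs combined 1:1, at 1 nM-1 μM, 1-10 μM, 10 μM or 10 and 100 μM each depending on series. RIPA lysates (10-20 μg protein) run on SDS-PAGE and immunoblotted for BRD4 with ECL detection.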

[2] = molecular target: T1, BRD4; assay: CURE-PRO-mediated BRD4 degradation in HCT116 cells, WES (ProteinSimple); design: endogenous in cells
[3] = molecular target: T1, BRD4; assay: Summary of BRD4 degradation by CURE-PRO pairs, estimated from Western Blot or WES; design: endogenous in cells
Outline: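 Namalwa, Ramos, HeLa, MCF7, HT29 or HCT116 cells treated 24 h with compounds in DMSO; RIPA lysates analysed by Western blot (ECL) or capillary WES immunodetection. Check mark denotes 30% to 70% or higher protein degradation.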

[4] = molecular target: T1, BRD4; assay: BRD protein family degradation in HCT116 cells, Western blot: BRD4; design: endogenous in cells
Description: Namalwa, Ramosm HeLa, MCF7, or HT29 HCT116 cells (2.5-3×10^6) were treated for 24 hours with the indicated compounds solubilized in DMSO. The cells were washed in ice-cold PBS and were then lysed in RIPA lysis buffer (150 mM NaCl, 5 mM EDTA, 1% NP-40, 0.5% sodium deoxycholate, 0.1% SDS, 50 mM Tris, pH 8.0.) with Roche protease inhibitor complete cocktail and phosphatase inhibitors (10 mM sodium fluoride, 10 mM sodium pyrophosphate, 1 mM sodium orthovanadate and 20 mM β-glycerophosphate). The total protein concentrations were determined by Bradford Protein Assay (Pierce) and 10-20 μg of protein was loaded onto 4-15% Tris-Glycine gradient gels (Biorad). After standard gel electrophoresis, the separated proteins were transferred to PVDF membrane by wet transfer. The immunoblots were then blocked for 1 hour in 5% skim milk in TBST or 5% BSA in TBST, according to manufacturer's instructions, before an overnight incubation at 4° C. with indicated antibodies and membranes. Membranes were then incubated with the appropriate horseradish peroxidase-conjugated secondary antibodies (1:5,000 dilution) for 1 h at room temperature and the bands were visualized using the Clarity Max Western ECL Substrate (Biorad) and the ChemiDoc Imaging System (Biorad). Signal was detected with ECL Western Blotting Substrate (Pierce) and X-ray film processed with a Konica SRX-101 X-ray film processor or captured by Bio-Rad's Chemidoc Imaging system.
HCT116 cells (3×10^6) were treated for 24 hours with the compounds solubilized in DMSO. Compounds were added at 100 nM-10 μM each. Standardized protein samples were electrophoresed and imaged as described in the Immunoblotting section above. FIGS. 64 and 65 depict the concentration-dependence of CURE-PRO-mediated BRD2 and BRD3 degradation using MDM2 ligands.

Row | SMILES | BRD4 degradation ([1]; co-treated 1:1 with CRBN ligand 8046, HeLa, 10 μM each) | BRD4 degradation ([1]; co-treated 1:1 with CRBN ligand 8066, HeLa, 10 μM each) | BRD4 degradation ([2]; 1:1 with MDM2 ligand 8313, HCT116, 24 h, 1 μM-10 μM each) | BRD4 degradation ([2]; 1:1 with MDM2 ligand 8314, HCT116, 24 h, 1 μM-10 μM each) | Degradation of BRD4, combination with CRBN ligand 8046 ([3]; Table 1, aryl-boronic acid BRD4 ligand + 8046) | Degradation of BRD4, combination with CRBN ligand 8066 ([3]; Table 1, aryl-boronic acid BRD4 ligand + 8066) | Degradation of BRD4, combination with MDM2 ligand 8313 ([3]; Table 2, aryl-boronic acid BRD4 ligand + 8313) | Degradation of BRD4, combination with MDM2 ligand 8314 ([3]; Table 2, aryl-boronic acid BRD4 ligand + 8314) | Degradation of BRD4, combination with VHL ligand 8305 ([3]; Table 3, aryl-boronic acid BRD4 ligand + 8305) | BRD4 degradation ([1]; BRD4 monomer alone, HeLa, 1-10 μM) | BRD4 degradation ([1]; co-treated 1:1 with CRBN ligand 8048, HeLa, 1-10 μM each) | BRD4 degradation ([1]; co-treated 1:1 with CRBN ligand 8049, HeLa, 1-10 μM each) | BRD4 degradation ([4]; 1:1 with MDM2 ligands 8310 and 8312 (each), HCT116, 24 h, 100 nM-10 μM) | selectivity of degradation among BRD2, BRD3 and BRD4 ([4]; with MDM2 ligands 8310 and 8312, HCT116, Western blot) | BRD4 degradation ([2]; 1:1 with MDM2 ligand 8310, HCT116, 24 h, 10 μM) | BRD4 degradation ([2]; 1:1 with MDM2 ligand 8312, HCT116, 24 h, 10 μM) | Degradation of BRD4, combination with CRBN ligand 8048 ([3]; Table 4, aromatic 1,2-diol BRD4 ligand + 8048) | Degradation of BRD4, combination with MDM2 ligand 8310 ([3]; Table 5, aromatic 1,2-diol BRD4 ligand + 8310) | Degradation of BRD4, combination with MDM2 ligand 8312 ([3]; Table 5, aromatic 1,2-diol BRD4 ligand + 8312)
1 | CCNC(=O)C[C@@H]1N=C(c2ccc(Cl)cc2)c2cc(OCCCCC(=O)Nc3cccc(B(O)O)c3)ccc2-n2c(C)nnc21 [BRD-E20, (3-(5-(((4S)-6-(4-chlorophenyl)-4-(2-(ethylamino)-2-oxoethyl)-1-methyl-4H-benzo[f][1,2,4]triazolo[4,3-a][1,4]diazepin-8-yl)oxy)pentanamido)phenyl)boronic acid] | causes degradation of BRD4; also recorded: Degradation is noted | causes degradation of BRD4; also recorded: Degradation is noted | had no effect on BRD4 protein levels | caused partial loss of the BRD4 protein; also recorded: Degradation is observed | √ (A black check mark indicates efficacy of 30% to 70% or higher protein degradation) | √ (A black check mark indicates efficacy of 30% to 70% or higher protein degradation) | √ (A black check mark indicates efficacy of 30% to 70% or higher protein degradation) | √ (A black check mark indicates efficacy of 30% to 70% or higher protein degradation) | √ (A black check mark indicates efficacy of 30% to 70% or higher protein degradation) |  |  |  |  |  |  |  |  |  | 
2 | CCNC(=O)C[C@@H]1N=C(c2ccc(Cl)cc2)c2cc(OCCOCCNC(=O)c3cccc(O)c3O)ccc2-n2c(C)nnc21 [BRD-N39, N-(2-(2-(((4S)-6-(4-chlorophenyl)-4-(2-(ethylamino)-2-oxoethyl)-1-methyl-4H-benzo[f][1,2,4]triazolo[4,3-a][1,4]diazepin-8-yl)oxy)ethoxy)ethyl)-2,3-dihydroxybenzamide] |  |  |  |  |  |  |  |  |  | there is no degradation of BRD4 | causes degradation of BRD4; also recorded: Degradation is noted | no evidence of BRD4 degradation | caused BRD4 degradation; also recorded: Degradation is evident | some selectivity for BRD4 over BRD2 and BRD3 is noted | caused BRD4 degradation | caused BRD4 degradation | √ (A black check mark indicates efficacy of 30% to 70% or higher protein degradation) | √ (A black check mark indicates efficacy of 30% to 70% or higher protein degradation) | √ (A black check mark indicates efficacy of 30% to 70% or higher protein degradation)
